Laboratory results taken from patent publication US6420381B1, “Naphthyridine derivatives” (Sumitomo Pharmaceuticals Company, Limited, priority 1998, dated 2002).
Structures can show the parent of a compound that is named as a salt.

Tests used:
[1] = molecular target: T1, ACAT (Rattus norvegicus, UniProt O70536); assay: Assay of ACAT inhibitory activity in a macrophage derived from rat peritoneal; type: cell-based; conditions: [9,10-3H]oleic acid
T1 construct: The rat peritoneal-derived macrophage was prepared; endogenous in cells; host or cells: rat peritoneal macrophages (primary)
T1 sequence (O70536 1-545): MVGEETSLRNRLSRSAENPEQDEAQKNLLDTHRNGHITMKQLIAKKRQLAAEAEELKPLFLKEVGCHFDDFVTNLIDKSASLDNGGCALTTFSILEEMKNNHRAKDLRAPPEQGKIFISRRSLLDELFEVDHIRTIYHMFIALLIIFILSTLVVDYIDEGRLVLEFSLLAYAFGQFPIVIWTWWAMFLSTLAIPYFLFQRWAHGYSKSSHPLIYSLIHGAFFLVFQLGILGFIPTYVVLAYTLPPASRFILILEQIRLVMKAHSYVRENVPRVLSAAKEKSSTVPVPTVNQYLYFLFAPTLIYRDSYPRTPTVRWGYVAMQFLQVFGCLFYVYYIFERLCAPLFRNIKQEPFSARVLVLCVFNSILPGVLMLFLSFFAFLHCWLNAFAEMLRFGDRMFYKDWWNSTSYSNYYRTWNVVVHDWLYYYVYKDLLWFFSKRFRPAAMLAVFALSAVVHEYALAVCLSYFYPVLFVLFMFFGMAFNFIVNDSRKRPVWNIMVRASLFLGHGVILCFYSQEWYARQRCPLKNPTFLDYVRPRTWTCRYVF
Description: 2. Assay of ACAT inhibitory activity in a macrophage derived from rat peritoneal:
The rat peritoneal-derived macrophage was prepared according to the method disclosed in the literature: Biochimica et Biophysica Acta, 1126, 73-80, 1992. The ACAT activity was determined by a modified method of the method disclosed in the above literature: Biochimica et Biophysica Acta, 1126, 73-80, 1992, i.e., using radioactive [9,10-^3H]oleic acid and exogenous cholesterol contained in the liposome which was re-constituted according to the method disclosed in the literature: Biochimica et Biophysica Acta, 1213, 127-134, 1994, and calculated from the radioactivity of the labeled cholesterolyl oleate.

[2] = tested on: ACAT; assay: Assay of ACAT inhibitory activity in a specimen prepared from rabbit liver; type: biochemical, New Zealand white rabbit; conditions: enzyme specimen from liver of cholesterol-fed rabbit, [1-14C]oleoyl-CoA
Description: 1. Assay of ACAT inhibitory activity in a specimen prepared from rabbit liver:
An enzyme specimen ACAT was prepared according to the method disclosed in the literature: J. Lipid. Research, 30, 681-690, 1989, from the liver of a New Zealand white rabbit, which had been fed with 1% cholesterol feed for one month. The ACAT activity was determined according to the method disclosed in the literature: J. Lipid Research, 24, 1127-1134, 1983, i.e., using radioactive [1-^14C]oleoyl-CoA and endogenous cholesterol contained in the liver microsome, and calculated from the radioactivity of the labeled cholesterol oleate.

Molecule	melting point	ACAT inhibitory rate (%) 10^−6 M [1]	ACAT inhibitory rate (%) 10^−6 M [2]	inhibition at 1 µM ([1]; 10^−6 M, read-out: ACAT inhibitory rate (%) 10^−6 M)
CCCCn1c(=O)c(NC(=O)Nc2cc(CNC)ccc2C(C)(C)C)c(-c2cccc(OC)c2)c2cccnc21 (as salt: hydrochloride) [Example 31]	163 to 165 °C			
CCCCn1c(=O)c(NC(=O)Nc2cc(CN(C)C)ccc2C(C)(C)C)c(-c2cccc(OC)c2)c2cccnc21 (as salt: hydrochloride) [Example 30]	174 to 175 °C			
N-[1-butyl-4-(3-methoxyphenyl)-1,2-dihydro-2-oxo-1,8-naphthyridin-3-yl]-N′-[2-tert-butyl-5-(1-pyrazolylmethyl)phenyl]urea [Example 19]		73%	99%	
CCCCn1c(=O)c(NC(=O)Nc2cc(CN3CCOCC3)ccc2C(C)(C)C)c(-c2cccc(OC)c2)c2cccnc21 [Example 1, N-[1-butyl-4-(3-methoxyphenyl)-1,2-dihydro-2-oxo-1,8-naphthyridin-3yl]-N′-[2-tert-butyl-5-(morpholinomethyl)phenyl]urea]			98%	97%
CCCCn1c(=O)c(NC(=O)Nc2cc(CNCC)ccc2C(C)(C)C)c(-c2cccc(OC)c2)c2cccnc21 (as salt: hydrochloride) [Example 32]	158 to 161 °C			
